Key:
Full length Human HDAC6 = target: T1, Full length Human HDAC6 (Homo sapiens, UniProt Q9UBN7); experiment: Caliper endpoint assay for HDAC enzymatic activity (HDAC6); format: biochemical; conditions: for IC50: in vitro enzymatic, Caliper endpoint assay, 30 min pre-incubation, 1 μM substrate peptide; for Selectivity (6 v 8): ratio of HDAC8 IC50/HDAC6 IC50
T1 construct: Full length Human HDAC6; FLAG (C); host or cells: baculovirus expression system
T1 sequence (Q9UBN7 1-1215): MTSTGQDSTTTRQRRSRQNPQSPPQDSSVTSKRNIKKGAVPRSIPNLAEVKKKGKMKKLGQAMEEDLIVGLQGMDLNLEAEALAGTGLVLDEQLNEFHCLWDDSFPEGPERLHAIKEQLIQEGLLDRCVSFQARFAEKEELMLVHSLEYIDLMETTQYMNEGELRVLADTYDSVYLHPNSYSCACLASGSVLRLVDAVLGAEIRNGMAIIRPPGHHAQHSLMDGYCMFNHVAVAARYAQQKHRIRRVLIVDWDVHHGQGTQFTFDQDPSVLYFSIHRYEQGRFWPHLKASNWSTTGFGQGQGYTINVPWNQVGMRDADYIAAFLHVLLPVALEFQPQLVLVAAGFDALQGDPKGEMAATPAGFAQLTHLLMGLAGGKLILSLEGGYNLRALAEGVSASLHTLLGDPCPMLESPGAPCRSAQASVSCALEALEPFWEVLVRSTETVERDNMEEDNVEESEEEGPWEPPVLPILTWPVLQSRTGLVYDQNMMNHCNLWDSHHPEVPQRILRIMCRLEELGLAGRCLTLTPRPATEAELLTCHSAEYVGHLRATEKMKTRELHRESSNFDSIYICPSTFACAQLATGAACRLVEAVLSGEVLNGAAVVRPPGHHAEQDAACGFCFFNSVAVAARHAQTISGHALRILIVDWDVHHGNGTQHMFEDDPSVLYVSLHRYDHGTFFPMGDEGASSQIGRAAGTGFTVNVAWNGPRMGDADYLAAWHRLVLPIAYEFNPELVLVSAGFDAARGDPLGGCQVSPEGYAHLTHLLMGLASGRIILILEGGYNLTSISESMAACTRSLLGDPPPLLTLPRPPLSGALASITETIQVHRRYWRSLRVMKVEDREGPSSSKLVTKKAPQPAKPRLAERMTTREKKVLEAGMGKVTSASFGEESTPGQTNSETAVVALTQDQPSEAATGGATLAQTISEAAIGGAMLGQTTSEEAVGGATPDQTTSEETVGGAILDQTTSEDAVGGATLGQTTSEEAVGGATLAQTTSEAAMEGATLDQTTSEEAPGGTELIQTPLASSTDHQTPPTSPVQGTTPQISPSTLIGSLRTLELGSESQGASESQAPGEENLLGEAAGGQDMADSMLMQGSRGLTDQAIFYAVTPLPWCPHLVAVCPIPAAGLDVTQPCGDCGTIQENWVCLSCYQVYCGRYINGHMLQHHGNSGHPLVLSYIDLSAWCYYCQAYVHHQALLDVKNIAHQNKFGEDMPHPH

Full length Human HDAC8 = target: T2, Full length Human HDAC8 (Homo sapiens, UniProt Q9BY41); experiment: Caliper endpoint assay for HDAC enzymatic activity (HDAC8); format: biochemical; conditions: in vitro enzymatic, 30 min pre-incubation, 1 μM substrate peptide
T2 construct: Full length Human HDAC8; HIS (N); host or cells: baculovirus expression system
T2 sequence (Q9BY41 1-377): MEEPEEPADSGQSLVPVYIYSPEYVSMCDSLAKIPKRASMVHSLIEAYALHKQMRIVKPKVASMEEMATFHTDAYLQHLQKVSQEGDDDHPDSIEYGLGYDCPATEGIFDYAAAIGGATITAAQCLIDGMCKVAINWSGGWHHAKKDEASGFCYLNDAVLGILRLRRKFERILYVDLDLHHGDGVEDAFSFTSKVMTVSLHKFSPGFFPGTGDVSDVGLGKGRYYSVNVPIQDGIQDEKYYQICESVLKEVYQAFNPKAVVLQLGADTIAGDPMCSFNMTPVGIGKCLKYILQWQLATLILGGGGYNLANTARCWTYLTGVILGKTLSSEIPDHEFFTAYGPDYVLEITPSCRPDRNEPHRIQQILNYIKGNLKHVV

Row | IC50 (Full length Human HDAC6) [nM] | Selectivity (6 v 8) (Full length Human HDAC6) | IC50 (Full length Human HDAC8) [nM] | Structure (SMILES)
1 | 1 to 100 | V (V: >1000) | > 100000 | O=C(NO)c1cc(F)c2c(c1)CCN(C1CC3(CCOCC3)C1)C2 [Compound 179, 8-Fluoro-N-hydroxy-2-(7-oxaspiro[3.5]nonan-2-yl)-1,2,3,4-tetrahydroisoquinoline-6-carboxamide]
2 | 100 to 1000 | IV (IV: >100-1000) | 10000 to 100000 | CC[C@@H]1Cc2c(F)cc(C(=O)NO)cc2CN1CC12CC(C1)N(C)C2 (single isomer, unassigned) [Compound 534]
3 | 1 to 100 | IV (IV: >100-1000) | 1000 to 10000 | O=C(NO)c1cc(F)c2c(c1)CCN([C@@H]1CCN(C3CC3)C3(CCC3)C1)C2 (single isomer, unassigned) [Compound 440]
4 | 1 to 100 | III (III: >10-100) | 1000 to 10000 | CN1CC[C@@]2(CC[C@@H]2N2CCc3cc(C(=O)NO)cc(F)c3C2)C1 (single isomer, unassigned) [Compound 329]
5 | 1 to 100 | IV (IV: >100-1000) | 10000 to 100000 | O=C(NO)c1cc(F)c2c(c1)CCN([C@H]1C[C@]3(CCCCO3)C1)C2 (single isomer, unassigned) [Compound 339, 8-fluoro-2-(5-oxaspiro[3.5]nonan-2-yl)-3,4-dihydro-1H-isoquinoline-6-carbohydroxamic acid]
6 | 1 to 100 | IV (IV: >100-1000) | 1000 to 10000 | CN1CC2(CCC2N2CCc3cc(C(=O)NO)cc(F)c3C2)C1 (centres unmarked) [Compound 302, 8-fluoro-2-(2-methyl-2-azaspiro[3.3]heptan-7-yl)-3,4-dihydro-1H-isoquinoline-6-carbohydroxamic acid]
7 | 1 to 100 | IV (IV: >100-1000) | 10000 to 100000 | CN1CC[C@H](N2CCc3cc(C(=O)NO)cc(F)c3C2)CC12CCC2 (single isomer, unassigned) [Compound 437]
8 | 1 to 100 | IV (IV: >100-1000) | 10000 to 100000 | O=C(NO)c1cc(F)c2c(c1)CCN(C1CC[C@]13CCCO3)C2 (single isomer, unassigned) [Compound 320]
9 | 100 to 1000 | III (III: >10-100) | 1000 to 10000 | O=C(NO)c1cc(F)c2c(c1)CCN(C1CCC13CCN(C1CC1)CC3)C2 (centres unmarked) [Compound 359, 2-(7-cyclopropyl-7-azaspiro[3.5]nonan-3-yl)-8-fluoro-3,4-dihydro-1H-isoquinoline-6-carbohydroxamic acid]
10 | 1 to 100 | IV (IV: >100-1000) | 10000 to 100000 | CC[C@H]1Cc2c(F)cc(C(=O)NO)cc2CN1C1COC1 (single isomer, unassigned) [Compound 601]
11 | 1 to 100 | IV (IV: >100-1000) | 10000 to 100000 | CN1CCC[C@]2(CC[C@@H]2N2CCc3cc(C(=O)NO)cc(F)c3C2)C1 (single isomer, unassigned) [Compound 365]
12 | 1 to 100 | IV (IV: >100-1000) | 10000 to 100000 | O=C(NO)c1cc(F)c2c(c1)CCN(C1CCC3(COC3)C1)C2 (centres unmarked) [Compound 387, 8-fluoro-2-(2-oxaspiro[3.4]octan-6-yl)-3,4-dihydro-1H-isoquinoline-6-carbohydroxamic acid]
13 | 1 to 100 | III (III: >10-100) | 1000 to 10000 | CC[C@H]1Cc2c(F)cc(C(=O)NO)cc2CN1CC12CC3CC(CC(C3)C1)C2 (single isomer, unassigned) [Compound 508]
14 | 1 to 100 | IV (IV: >100-1000) | 10000 to 100000 | CC(=O)N1CC[C@@H](N2CCc3cc(C(=O)NO)cc(F)c3C2)CC12CCC2 (single isomer, unassigned) [Compound 442]
15 | 1 to 100 |  | 10000 to 100000 | O=C(NO)c1cc(F)c2c(c1)CCN(C[C@@H]1CCC3(CCCCC3)C1)C2 (single isomer, unassigned) [Compound 107]
16 | 1 to 100 | III (III: >10-100) | 1000 to 10000 | CC[C@H]1Cc2c(F)cc(C(=O)NO)cc2CN1CC1CCC2(CCC2)CC1 (single isomer, unassigned) [Compound 528]
17 | 1 to 100 | V (V: >1000) | 10000 to 100000 | O=C(NO)c1cc(F)c2c(c1)CCN(CC1CCC3(CC1)CNC3)C2 [Compound 464, 2-(2-azaspiro[3.5]nonan-7-ylmethyl)-8-fluoro-3,4-dihydro-1H-isoquinoline-6-carbohydroxamic acid]
18 | 100 to 1000 | III (III: >10-100) | 10000 to 100000 | CC[C@@H]1Cc2c(F)cc(C(=O)NO)cc2CN1C1CC2(CCOCC2)C1 (single isomer, unassigned) [Compound 590]
19 | 1 to 100 | IV (IV: >100-1000) | 1000 to 10000 | CN1Cc2cc(C(=O)NO)cc(F)c2CN1Cc1ccccc1 [Compound 118]
20 | 1 to 100 | IV (IV: >100-1000) | 10000 to 100000 | CN1CC[C@@]2(CC[C@@H](N3CCc4cc(C(=O)NO)cc(F)c4C3)C2)C1 (single isomer, unassigned) [Compound 404]
21 | 1 to 100 | IV (IV: >100-1000) | 1000 to 10000 | CN1CC[C@]2(CC[C@@H](N3CCc4cc(C(=O)NO)cc(F)c4C3)C2)C1 (single isomer, unassigned) [Compound 402]
22 | 1 to 100 | IV (IV: >100-1000) | 10000 to 100000 | CC[C@H]1Cc2c(F)cc(C(=O)NO)cc2CN1CC12CC(NC)(C1)C2 (single isomer, unassigned) [Compound 523]
23 | 1 to 100 | IV (IV: >100-1000) | 1000 to 10000 | O=C(NO)c1cc(F)c2c(c1)CCN(C1CCC3(CCN(C4CC4)CC3)C1)C2 (centres unmarked) [Compound 418, N-2-(8-cyclopropyl-8-azaspiro[4.5]decan-2-yl)-8-fluoro-N-hydroxy-1,2,3,4-tetrahydroisoquinoline-6-carboxamide]
24 | 1 to 100 | IV (IV: >100-1000) | 10000 to 100000 | CC[C@@H]1Cc2c(F)cc(C(=O)NO)cc2CN1C1CCC1 (single isomer, unassigned) [Compound 596]
25 | 1 to 100 | IV (IV: >100-1000) | 10000 to 100000 | O=C(NO)c1cc(F)c2c(c1)CCN(CC13CC(C1)N(C1CC1)C3)C2 [Compound 491, 2-[(2-cyclopropyl-2-azabicyclo[2.1.1]hexan-4-yl)methyl]-8-fluoro-3,4-dihydro-1H-isoquinoline-6-carbohydroxamic acid]
26 | 1 to 100 | V (V: >1000) | 10000 to 100000 | O=C(NO)c1cc(F)c2c(c1)CCN(C1CCC3(CCCC3)CC1)C2 [Compound 193, 8-fluoro-2-spiro[4.5]decan-8-yl-3,4-dihydro-1H-isoquinoline-6-carbohydroxamic acid]

Row | Structure (SMILES) | IC50 (Full length Human HDAC6) [nM] | Selectivity (6 v 8) (Full length Human HDAC6) | IC50 (Full length Human HDAC8) [nM]
27 | O=C(NO)c1ccc2c(c1)CN1CCCC[C@@H]1C2 [Compound 143] | 100 to 1000 | III (III: >10-100) | 1000 to 10000
28 | CC1(C)C[C@@H]2Cc3c(F)cc(C(=O)NO)cc3CN2C1 [Compound 127] | 1 to 100 | IV (IV: >100-1000) | 1000 to 10000
29 | O=C(NO)c1cc(F)c2c(c1)CCN1CCC[C@H]21 [Compound 80] | 100 to 1000 | III (III: >10-100) | 1000 to 10000

— patent publication US12655106B2 (Eikonizo Therapeutics, Inc., priority 2021, dated 2026)
